This is an account of results in ChEMBL document CHEMBL1129883, “Synthesis and cytotoxicity of 5-deazaflavins containing o- and p-quinone moieties” (Bioorg Med Chem Lett, 1997).

Assay [1] relates to KB. The assay can be described thus: In vitro cytotoxicity determined against human epidermoid carcinoma KB cells by MTT assay. Type of assay: functional, cell-based.
The test system of assay [2] is L1210. The assay can be described thus: In vitro cytotoxicity determined against murine leukemia L1210 cells by MTT assay. Type of assay: functional, cell-based. As to conditions: Mus musculus.

Turning to `CCCn1c2nc(=O)n(C)c(=O)c-2cc2c1C(=O)C(=O)c1ccccc1-2`, the IC50 in assay [1] is 1.2 µM; in assay [2], 0.7 µM.

As to `CCCCCCCCCCCCn1c2nc(=O)n(-c3ccccc3)c(=O)c-2cc2c1C(=O)C(=O)c1ccccc1-2`, the values for the IC50 in assay [1] and in assay [2] were 17.9 µM and 2.8 µM, respectively.

On to `CCCCCCCCn1c2nc(=O)n(C)c(=O)c-2cc2c1C(=O)C(=O)c1ccccc1-2`, for which the IC50 in assay [1] stood at 1.7 µM; in assay [2] it was 0.4 µM.

Regarding `CCCCn1c2nc(=O)n(-c3ccccc3)c(=O)c-2cc2c1C(=O)C(=O)c1ccccc1-2`, the IC50 amounted to 28.2 µM in assay [1] and 4.9 µM in assay [2].

In the case of `CCCCCCCCn1c2nc(=O)[nH]c(=O)c-2cc2c1C(=O)C(OC)=CC2=O`, the results for the IC50 in assay [1] and in assay [2] were 1.5 µM and 4.4 µM, respectively.

Regarding `CCCCCCn1c2nc(=O)n(C)c(=O)c-2cc2c1C(=O)C(OC)=CC2=O`, the IC50 stood at 0.6 µM in assay [1] and 0.5 µM in assay [2].

Consider `CCCCCCCCn1c2nc(=O)n(C)c(=O)c-2cc2c1C(=O)C(OC)=CC2=O`, for which the IC50 in assay [1] stood at 5.8 µM; in assay [2] it was 0.4 µM.

As for `CCCCCCCCCCCCn1c2nc(=O)n(C)c(=O)c-2cc2c1C(=O)C(OC)=CC2=O`, the IC50 stood at 1.8 µM in assay [1] and 0.1 µM in assay [2].

`CCCCCCCCCCCCn1c2nc(=O)[nH]c(=O)c-2cc2c1C(=O)C(=O)c1ccccc1-2`: the values for the IC50 in assay [1] and in assay [2] were 6.9 µM and 3 µM, respectively.

With `CCCCCCCCCCCCn1c2nc(=O)n(C)c(=O)c-2cc2c1C(=O)C(=O)c1ccccc1-2`, the IC50 in assay [1] came to 0.2 µM; in assay [2], 0.3 µM.

Take `CCn1c2nc(=O)n(C)c(=O)c-2cc2c1C(=O)C(=O)c1ccccc1-2`: the IC50 was 0.3 µM in assay [1] and 0.1 µM in assay [2].

Regarding `CCCCCCCCCCCCn1c2nc(=O)n(C)c(=O)c-2cc2ccccc21`, the IC50 in assay [1] and in assay [2] was more than 50 µM in each case.

For `CCn1c2nc(=O)n(C)c(=O)c-2cc2c3ccccc3cc(OC)c21`, the IC50 in assay [1] and in assay [2] was more than 50 µM throughout.

As to `CCCCCCCCn1c2nc(=O)[nH]c(=O)c-2cc2c1C(=O)C(=O)c1ccccc1-2`, the results for the IC50 in assay [1] and in assay [2] were 3.2 µM and 4.2 µM, respectively.

As for `CCCCCCn1c2nc(=O)[nH]c(=O)c-2cc2c1C(=O)C(OC)=CC2=O`, the IC50 worked out at 4.5 µM in assay [1] and 4.8 µM in assay [2].

Regarding `CCCCn1c2nc(=O)[nH]c(=O)c-2cc2c1C(=O)C(=O)c1ccccc1-2`, the IC50 in assay [1] turned out to be 5.2 µM; in assay [2], 2.1 µM.

With `CCCCCCCCCCCCn1c2nc(=O)n(-c3ccccc3)c(=O)c-2cc2c1C(=O)C(OC)=CC2=O`, the IC50 came to 0.3 µM in assay [1] and 2.7 µM in assay [2].

In the case of `CCCCCCn1c2nc(=O)n(C)c(=O)c-2cc2c1C(=O)C(=O)c1ccccc1-2`, the IC50 in assay [1] was 0.8 µM; in assay [2], 0.1 µM.

`CCCCCCCCCCCCn1c2nc(=O)[nH]c(=O)c-2cc2c1C(=O)C(OC)=CC2=O`: the IC50 worked out at 12.7 µM in assay [1] and 2.5 µM in assay [2].

`CCCCCCCCn1c2nc(=O)n(-c3ccccc3)c(=O)c-2cc2c1C(=O)C(OC)=CC2=O`: the IC50 in assay [1] turned out to be 1 µM; in assay [2], 1.8 µM.

Take `CCCCCCn1c2nc(=O)n(-c3ccccc3)c(=O)c-2cc2c1C(=O)C(OC)=CC2=O`: the IC50 in assay [1] came out at 0.4 µM; in assay [2], 1.3 µM.

Consider `CCCCn1c2nc(=O)n(C)c(=O)c-2cc2c1C(=O)C(=O)c1ccccc1-2`, for which the IC50 in assay [1] came to 0.2 µM; in assay [2], 0.4 µM.

For the molecule `CCCCCCCCn1c2nc(=O)n(-c3ccccc3)c(=O)c-2cc2c1C(=O)C(=O)c1ccccc1-2`, the IC50 in assay [1] amounted to 22.9 µM; in assay [2], 3.1 µM.

Regarding `CCCCn1c2nc(=O)n(C)c(=O)c-2cc2c1C(=O)C(OC)=CC2=O`, the values for the half-inhibitory concentration (IC50) in assay [1] and in assay [2] were 0.9 µM and 1.2 µM, respectively.
